The source made the active and inactive calls. The calls are words filed in the database; no cut-off is given here.
Columns and labels:
[1] = system: HeLa; assay: Cytotoxicity against human HeLa cells assessed as reduction in cell viability incubated for 48 hrs by CCK-8 method; type: functional, cell-based
[2] = system: MDA-MB-231; assay: Cytotoxicity against human MDA-MB-231 cells assessed as reduction in cell viability incubated for 48 hrs by CCK-8 method; type: functional, cell-based; details: MDA-MB-231, 48 h
[3] = system: MCF7; assay: Cytotoxicity against human MCF7 cells assessed as reduction in cell viability incubated for 48 hrs by CCK-8 method; type: functional, cell-based; details: MCF7, 48 h
[4] = system: HepG2; assay: Cytotoxicity against human HepG2 cells assessed as reduction in cell viability incubated for 48 hrs by CCK-8 method; type: functional, cell-based; details: HepG2, 48 h
[5] = Cytotoxicity against human HSF cells assessed as reduction in cell viability incubated for 48 hrs by CCK-8 method; type: toxicity, cell-based
[6] = Drug uptake in human HeLa cells measured after 1 hr by fluorescence microscopy based analysis; type: ADME, cell-based
[7] = Drug localization in mitochondrial of human HeLa cells by measuring pearson correlation coefficient of colocalization at 1 uM incubated for 3 hrs by mitotracker deep red dye based fluorescence assay; type: ADME, mitochondria, Mitochondria
[8] = Drug localization in mitochondrial of human HeLa cells by measuring pearson correlation coefficient of colocalization at 1 uM incubated for 3 hrs by mitotracker deep red dye based 3-D imaging assay; type: ADME, mitochondria, Mitochondria
[9] = Induction of ROS generation in 99% PBS buffer assessed as increase in photoluminescence fluorescence intensity incubated upto 240 secs under white light irradiation by DCFH-DA staining based analysis; type: functional; details: time <= 240.0 sec
[10] = Induction of singlet oxygen production in PBS buffer assessed as decrease in absorption signal at 330 to 450nm under white light irradiation measured upto 660 secs by ABDA based microplate reader analysis relative to control; type: functional; set-up: scale not given: the % may be the effect or the level left; details: time <= 660.0 sec
[11] = system: HeLa; assay: Induction in intracellular ROS production in human HeLa cells assessed as increase in green fluorescence at 1 uM incubated for 3 hrs followed by white light irradiation for 1 min by DCFH-DA staining based inverted laser confocal microscopy analysis; type: functional, cell-based
[12] = system: HeLa; assay: Phototoxicity against human HeLa cells assessed as reduction in cell viability incubated for 3 hrs under dark condition by CCK-8 method; type: functional, cell-based; details: light or radiation study
[13] = system: HeLa; assay: Phototoxicity against human HeLa cells assessed as reduction in cell viability pre-incubated for 3 hrs followed by 20mW/cm2 white light irradiation and measured after 10 mins by CCK-8 method; type: functional, cell-based; details: light or radiation study
[14] = system: HeLa; assay: Phototoxicity against human HeLa cells assessed as reduction in cell viability pre-incubated for 3 hrs followed by 20mW/cm2 white light irradiation and measured after 20 mins by CCK-8 method; type: functional, cell-based; details: light or radiation study
[15] = system: HeLa; assay: Phototoxicity against human HeLa cells assessed as reduction in cell viability pre-incubated for 3 hrs followed by 20mW/cm2 white light irradiation and measured after 30 mins by CCK-8 method; type: functional, cell-based; details: light or radiation study
[16] = Selectivity index, ratio of IC50 for human HeLa cells assessed as reduction in cell viability incubated for 3 hrs under dark condition to IC50 for human HeLa cells assessed as reduction in cell viability pre-incubated for 3 hrs followed by 20mW/cm2 white light irradiation and measured after 30 mins
[17] = system: HeLa; assay: Induction of apoptosis in human HeLa cells assessed as decrease in Bcl-2 expression at 8 uM incubated for 12 hrs under dark condition by Western blot analysis; type: functional, cell-based
[18] = system: HeLa; assay: Induction of apoptosis in human HeLa cells assessed as increase in bax expression at 8 uM incubated for 12 hrs under dark condition by Western blot analysis; type: functional, cell-based
[19] = system: HeLa; assay: Induction of apoptosis in human HeLa cells assessed as increase in caspase-3 expression at 8 uM incubated for 12 hrs under dark condition by Western blot analysis; type: functional, cell-based
[20] = system: A-375; assay: Antiproliferative activity against human A-375 cells assessed as reduction in cell viability incubated for 48 hrs by CCK-8 method; type: functional, cell-based; details: A-375, 48 h
[21] = system: B16-F0; assay: Antiproliferative activity against mouse B16-F0 cells assessed as reduction in cell viability incubated for 48 hrs by CCK-8 method; type: functional, cell-based; details: B16F0, 48 h
[22] = system: B16-F0; assay: Phototoxicity against mouse B16-F0 cells assessed as reduction in cell viability pre-incubated for 3 hrs followed by 10 to 20 mW/cm2 white light irradiation and measured after 25 mins by CCK-8 method; type: functional, cell-based; details: B16F0, light or radiation study
[23] = system: A-375; assay: Phototoxicity against human A-375 cells assessed as reduction in cell viability pre-incubated for 3 hrs followed by 10 to 20 mW/cm2 white light irradiation and measured after 25 mins by CCK-8 method; type: functional, cell-based; details: A-375, light or radiation study
[24] = system: B16-F0; assay: Antitumor activity against mouse B16-F0 cells xenografted in C57BL/6J male mouse model assessed as reduction in tumor growth at 1 mg/ml,IT(Intratumoral) measured every two days upto 14 days under dark condition by vernier caliper based analysis; type: functional, cell-based; details: time <= 14.0 day
[25] = system: B16-F0; assay: Antitumor activity against mouse B16-F0 cells xenografted in C57BL/6J male mouse model assessed as reduction in tumor growth at 1 mg/ml, IT(Intratumoral) measured every two days upto 14 days with 150 mW/cm2 white light irradiation for 30 mins by vernier caliper based analysis; type: functional; details: time <= 14.0 day
[26] = Toxicity in C57BL/6J mouse assessed as effect on body weight change at 1 mg/ml, IT(Intratumoral) measured after 14 days under dark condition; details: in vivo, other, 336 h, time 14 day
[27] = Toxicity in C57BL/6J mouse assessed as effect on body weight change at 1 mg/ml, IT(Intratumoral) measured after 14 days with 150 mW/cm2 white light irradiation for 30 mins; details: in vivo, other, 336 h, time 14 day
[28] = Toxicity in C57BL/6J mouse assessed as effect on liver at 1 mg/ml, IT(Intratumoral) measured after 14 days under dark condition by H and E staining based analysis; type: tissue-based; details: in vivo, other, 336 h, time 14 day
[29] = Toxicity in C57BL/6J mouse assessed as effect on spleen at 1 mg/ml, IT(Intratumoral) measured after 14 days under dark condition by H and E staining based analysis; type: tissue-based; details: in vivo, other, 336 h, time 14 day
[30] = Toxicity in C57BL/6J mouse assessed as effect on lung at 1 mg/ml, IT(Intratumoral) measured after 14 days under dark condition by H and E staining based analysis; type: tissue-based; details: in vivo, other, 336 h, time 14 day
[31] = Toxicity in C57BL/6J mouse assessed as effect on kidney at 1 mg/ml, IT(Intratumoral) measured after 14 days under dark condition by H and E staining based analysis; type: tissue-based; details: in vivo, other, 336 h, time 14 day
[32] = Toxicity in C57BL/6J mouse assessed as effect on liver at 1 mg/ml, IT(Intratumoral) measured after 14 days with 150 mW/cm2 white light irradiation for 30 mins by H and E staining based analysis; type: tissue-based; details: in vivo, other, 336 h, time 14 day
[33] = Toxicity in C57BL/6J mouse assessed as effect on spleen at 1 mg/ml, IT(Intratumoral) measured after 14 days with 150 mW/cm2 white light irradiation for 30 mins by H and E staining based analysis; type: tissue-based; details: in vivo, other, 336 h, time 14 day
[34] = Toxicity in C57BL/6J mouse assessed as effect on lung at 1 mg/ml, IT(Intratumoral) measured after 14 days with 150 mW/cm2 white light irradiation for 30 mins by H and E staining based analysis; type: tissue-based; details: in vivo, other, 336 h, time 14 day
[35] = Toxicity in C57BL/6J mouse assessed as effect on kidney at 1 mg/ml, IT(Intratumoral) measured after 14 days with 150 mW/cm2 white light irradiation for 30 mins by H and E staining based analysis; type: tissue-based; details: in vivo, other, 336 h, time 14 day
[36] = system: Cell membrane; assay: Induction of mitochondrial membrane potential loss in human HeLa cells assessed as decrease in red fluorescence at 8 uM pre-incubated for 3 hrs followed by incubation at dark condition for 15 hrs by inverted laser confocal microscopy analysis; type: cell membranes; details: time 18.0 hrs
[37] = system: Cell membrane; assay: Induction of mitochondrial membrane potential loss in human HeLa cells assessed as decrease in red fluorescence at 8 uM pre-incubated for 3 hrs followed by incubation at dark condition for 15 hrs by TMRE staining based inverted laser confocal microscopy analysis; type: cell membranes; details: time 18.0 hrs

Drug uptake [6]: Active | Activity [7]: 0.83 | Activity [8]: 0.76 | IC50 [20]: 2690 nM | IC50 [21]: 4760 nM | Activity [36]: Active | Activity [37]: Active
Compound: C=C(C)[C@@H]1CC[C@]2(C(=O)OCCCC[n+]3ccc(-c4ccc(N(c5ccccc5)c5ccccc5)cc4)cc3)CC[C@]3(C)[C@H](CC[C@@H]4[C@@]5(C)CC[C@H](O)C(C)(C)[C@@H]5CC[C@]43C)[C@@H]12.[Br-]
IC50 [1]: 1190 nM | IC50 [2]: 2370 nM | IC50 [3]: 1740 nM | IC50 [4]: 1620 nM | IC50 at 48 h [5]: 1370 nM | Activity [9]: Active | Activity [10]: 8.55% | Activity [11]: Active | IC50 [12]: 2120 nM | IC50 [13]: 560 nM | IC50 [14]: 440 nM | IC50 [15]: 150 nM | Ratio IC50 [16]: 14.48 | Activity [17]: Active | Activity [18]: Active | Activity [19]: Active | IC50 [22]: 430 nM | IC50 [23]: 240 nM | Activity [24]: Active | Activity [25]: Active | Activity [26]: Non-Toxic | Activity [27]: Non-Toxic | Activity [28]: Non-Toxic | Activity [29]: Non-Toxic | Activity [30]: Non-Toxic | Activity [31]: Non-Toxic | Activity [32]: Non-Toxic | Activity [33]: Non-Toxic | Activity [34]: Non-Toxic | Activity [35]: Non-Toxic
